Test results published in patent publication US8710064B2, “2-aryl-4-quinazolinones and their pharmaceutical compositions” (China Medical University, priority 2011, dated 2014).

Test system: C6 glioma cells
Assay: G1 synchronized by Ara-C, flow cytometry
Assay type: cell-based, rat
Conditions: 60 nM MJ-66 after 41.6 nM Ara-C 12 hours; at 12th and 24th hours
Method: At indicated time points (0, 6, 12 and 24 hr), >10^6 cells were collected and fixed in 70% ethanol over 1 hour at −20° C. After staining with PI as described, DNA content of ten thousand cells was analyzed by flow cytometry.
To investigate the influence of MJ-66 on normal glia such as human glia cell line SVGP12 and rat primary glia cells, cells were treated with different concentrations of MJ-66 in vitro (0.00625, 0.0125, 0.025, 0.05, 0.1 and 1 μM) for different time durations (0, 6, 12 and 24 hours) and the cell viability was assessed by MTS assay. Cells alone or treated with DMSO were used as control. […] However, most glia cells in animals are static and their proliferation rate is almost silent. Therefore, cytosine arabinoside (Ara-C), a DNA synthesis inhibitor, was further used to inhibit glioma cell proliferation and glioma cells were then treated with MJ-66 or DMSO as described in “General materials and methods”. Specifically, after C6 glioma cells were treated with 41.6 nM Ara-C for 12 hours, and then treated with solvent (DMSO) or 60 nM MJ-66 for 0, 6, 12 and 24 hours, the cell cycle distributions and DNA content of the cells were monitored by flow cytometry with propidium iodide staining C6 glioma cells treated with 41.6 nM Ara-C for 12 hours (12 hr) were detected by flow cytometry with propidium iodide staining as control.

O=c1[nH]c(-c2cccc3ccccc23)nc2ccc(N3CCCC3)cc12 [Compound 23, 6-(Pyrrolidin-1-yl)-2-(naphthalen-1-yl)quinazolin-4-one]
cell death of G1 arrest (Ara-C-treated) glioma cells: not induced cell death
